Results taken from patent publication US7968526B2, “Antisense oligonucleotides directed to ribonucleotide reductase R2 and uses thereof in the treatment of cancer” (Lorus Therapeutics Inc., priority 2003, dated 2011).
“Also recorded” adds a separate entry of the source.

What was measured:
[1] = system: A498 human kidney cancer cells; assay: A498 kidney tumour growth in SCID mice (3.9); format: in vivo, human cells in mice
Procedure: Treatments lasted for 14 days thereafter. Antitumour activities were estimated by the inhibition of tumour volume, which was measured with a caliper on four different occasions over the treatment period. Each point represents mean tumour volume calculated from 5 animals per experimental group. […] Control animals (control) received saline alone for the same period. At the end of the treatments, the animals were sacrificed, tumours were excised and their weights were measured. Each bar represents mean tumour weight calculated from 6 animals per experimental group. […] Treatments lasted for 24 days thereafter. Antitumour activities were estimated by the inhibition of tumour volume, which was measured with a caliper at two-day intervals over the treatment period. Each point represents mean tumour volume calculated from 4 animals per experimental group. […] Treatments lasted for 24 days thereafter. Antitumour activities were estimated by the inhibition of tumour volume, which was measured with a caliper at two-day intervals over the treatment period. Each point represents mean tumour volume calculated from 4 animals per experimental group. […] Each point represents mean tumour volume calculated from 5 animals per experimental group. […] Antitumour activities were estimated by the inhibition of tumour volume, which was measured with a caliper on four different occasions over 16-day period. […]

[2] = system: LS513 multi-drug resistant colon carcinoma cells; assay: LS513 multi-drug resistant colon carcinoma xenograft in SCID mice, combination with CPT-11 (2.8); format: in vivo, human cells in mice; settings: SEQ ID NO:1 10 mg/kg i.v. every other day, CPT-11 20 mg/kg/day i.p. 5 days
Procedure: BxPC-3 is a gemcitabine resistant call line. […] Gemcitabine was administered intravenously every three days at a dose of 100 mg/kg. Antitumour activities were estimated by the inhibition of tumour volume, which was measured with caliper. Each point represents mean tumour volume calculated from 10 animals per experimental group. […] Hela S3 is a hydroxyurea resistant cell line. […] Hydroxyurea was administered intraperitoneally every day at a dose of 250 mg/kg for 10 days. Cisplatin was administered intravenously once a week for three weeks at a dose of 4 mg/kg. Antitumour activities were estimated by the inhibition of tumour volume, which was measured with caliper. Each point represents mean tumour volume calculated from 10 animals per experimental group. […] Cisplatin was administered intravenously once a week for three weeks at a dose of 4 mg/kg. Taxol was administered intravenously once a week for three weeks at a dose of 10 mg/kg. Antitumour activities were estimated by the inhibition of tumour volume, which was measured with caliper. Each point represents mean tumour volume calculated from 10 animals per experimental group. […] Taxol was administered i.p. once a week at a dose of 10 mg/kg. Antitumour activities were estimated by the inhibition of tumour volume (FIG. 12A), which was measured with calipers. Each point represents mean tumour volume calculated from 10 animals per experimental group. […] Antitumour activities were estimated by the inhibition of tumour volume, which was measured with caliper. Each point represents mean tumour volume calculated from 9-10 animals per experimental group. […] Antitumour activities were estimated by the inhibition of tumour volume, which was measured with caliper. Each point represents mean tumour volume calculated from 10 animals per experimental group. […] Anti-tumour activity was estimated by the inhibition of tumour volume, which was measured with caliper. Each point represents mean tumour volume calculated from 10 animals per experimental group. […] Antitumour activities were estimated by the inhibition of tumour volume, which was measured with caliper. […]

5′-GGCTAAATCGCTCCACCAAG-3′ (all phosphorothioate, sugars by position and methylation of C not given here) [SEQ ID NO: 1, fully phosphorothioated antisense oligonucleotide that hybridizes to the coding region of R2 mRNA]
Inhibitory effect on tumour growth (tumour volume, FIG. 21B) ([1]; A498, SCID mice, 10 mg/kg i.v. every other day to day 52): powerful inhibitory effects on the growth of human renal carcinoma cells, resulting in total regression of the tumours
Tumour regression ([1]; Human Renal Carcinoma^2 (third entry of Table 5)): Complete regression of all tumours in treated
Tumour weight as % of saline control ([2]; LS513 (colon) multi-drug resistant (CPT-11 sensitive), SCID): 49%
Antitumour effect (FIG. 16) ([2]; LS513, SCID mice): significant delay of tumour growth compared to saline control; also recorded: as effective as CPT-11
